Source: PubChem BioAssay (NCI)
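Values below derive from 48-hour exposures of cells grown in 96-well plates, with endpoints linearly interpolated between the two concentrations bracketing the appropriate inhibition level. TGI marks complete inhibition of growth.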

Key:
Assay in all cases: NCI tumour cell line growth inhibition, 48 h
[1] = tested on: TK-10 renal
[2] = tested on: DMS 273 small cell lung
[3] = tested on: PC-3 prostate
[4] = tested on: ACHN renal
[5] = tested on: HT29 colon
[6] = tested on: MALME-3M melanoma
[7] = tested on: MDA-N
[8] = tested on: DMS 114 small cell lung
[9] = tested on: HL-60(TB) leukemia
[10] = tested on: SK-MEL-2 melanoma
[11] = tested on: LOX IMVI melanoma
[12] = tested on: RXF 393 renal
[13] = tested on: UACC-257 melanoma
[14] = tested on: SNB-19 CNS
[15] = tested on: NCI-H226 lung
[16] = tested on: SK-OV-3 ovarian
[17] = tested on: K-562 leukemia
[18] = tested on: HOP-18 NSCLC
[19] = tested on: P388 leukemia
[20] = tested on: T-47D breast
[21] = tested on: UO-31 renal
[22] = tested on: HCT-116 colon
[23] = tested on: DLD-1 colon
[24] = tested on: HOP-92 NSCLC
[25] = tested on: NCI-H522 lung
[26] = tested on: UACC-62 melanoma
[27] = tested on: CAKI-1 renal
[28] = tested on: NCI-H460 lung
[29] = tested on: DU-145 prostate
[30] = tested on: M19-MEL melanoma
[31] = tested on: MOLT-4 leukemia
[32] = tested on: SK-MEL-5 melanoma
[33] = tested on: SF-295 CNS
[34] = tested on: U251 CNS
[35] = tested on: SNB-78 CNS
[36] = tested on: HCT-15 colon
[37] = tested on: SF-539 CNS
[38] = tested on: SF-268 CNS
[39] = tested on: OVCAR-5 ovarian
[40] = tested on: OVCAR-3 ovarian
[41] = tested on: SR leukemia
[42] = tested on: SW-620 colon
[43] = tested on: OVCAR-8 ovarian
[44] = tested on: M14 melanoma
[45] = tested on: MCF7 breast
[46] = tested on: HS 578T breast
[47] = tested on: A549 NSCLC
[48] = tested on: CCRF-CEM leukemia
[49] = tested on: MDA-MB-435
[50] = tested on: SNB-75 CNS
[51] = tested on: P388/ADR leukemia
[52] = tested on: BT-549 breast
[53] = tested on: OVCAR-4 ovarian
[54] = tested on: NCI/ADR-RES ovarian
[55] = tested on: HCC-2998 colon
[56] = tested on: 786-0 renal
[57] = tested on: COLO 205 colon
[58] = tested on: NCI-H23 lung
[59] = tested on: IGROV1 ovarian
[60] = tested on: MDA-MB-231 breast
[61] = tested on: SN12K1 renal
[62] = tested on: KM20L2 colon
[63] = tested on: EKVX NSCLC
[64] = tested on: A498 renal
[65] = tested on: HOP-62 NSCLC
[66] = tested on: SK-MEL-28 melanoma
[67] = tested on: RPMI-8226 leukemia
[68] = tested on: KM12 colon
[69] = tested on: SN12C renal
[70] = tested on: XF 498 CNS
[71] = tested on: RXF-631 renal
[72] = tested on: LXFL 529 NSCLC

`COc1cc2c(cc1OC)C(Cl)C(c1ccc(Br)cc1)=C2Cl` (centres undefined) was tested, and the TGI [1] was 23.6 µM, the TGI [2] was 31.6 µM and the TGI [3] was 21.6 µM. It also gave a TGI [4] of 21.3 µM, a TGI [5] of 28.5 µM and a TGI [6] of 28 µM. The TGI [7] was 13.6 µM, the TGI [8] was 23.3 µM and the TGI [9] was over 67.3 µM. It also gave a TGI [10] of 22.5 µM, a TGI [11] of 24.4 µM and a TGI [12] of 24.6 µM. It also gave a TGI [13] of 31.6 µM, a TGI [14] of 32 µM and a TGI [15] of over 55.1 µM. The TGI [16] was 45.9 µM, the TGI [17] was 41.9 µM and the TGI [18] was 56.4 µM. The TGI [19] was over 100 µM, the TGI [20] was 15.1 µM and the TGI [21] was 17.1 µM. For the same compound, the TGI [22] was 22.7 µM, the TGI [23] was 27.6 µM and the TGI [24] was 36.2 µM. It also gave a TGI [25] of 12.8 µM, a TGI [26] of 50.6 µM and a TGI [27] of 32 µM. The TGI [28] was 25.8 µM, the TGI [29] was 23.8 µM and the TGI [30] was 36 µM. It also gave a TGI [31] of 49.2 µM, a TGI [32] of 28.6 µM and a TGI [33] of 30.5 µM. It also gave a TGI [34] of 24.8 µM, a TGI [35] of 32.6 µM and a TGI [36] of 23.6 µM. The TGI [37] was 26.1 µM, the TGI [38] was 29.4 µM and the TGI [39] was 31 µM. For the same compound, the TGI [40] was 24.1 µM, the TGI [41] was over 100 µM and the TGI [42] was 23.4 µM. The TGI [43] was 26.1 µM, the TGI [44] was 23.3 µM and the TGI [45] was 21.2 µM. It also gave a TGI [46] of 59.3 µM, a TGI [47] of 33 µM and a TGI [48] of over 100 µM. The TGI [49] was 17.4 µM, the TGI [50] was 27.7 µM and the TGI [51] was over 100 µM. The TGI [52] was 5.44 µM, the TGI [53] was 63.5 µM and the TGI [54] was 30.9 µM. For the same compound, the TGI [55] was 27.4 µM, the TGI [56] was 16.7 µM and the TGI [57] was 29.1 µM. The TGI [58] was 23.8 µM, the TGI [59] was 31.8 µM and the TGI [60] was 21.6 µM. It also gave a TGI [61] of 29.4 µM, a TGI [62] of 41.3 µM and a TGI [63] of 17.2 µM. For the same compound, the TGI [64] was 33.1 µM, the TGI [65] was 35.4 µM and the TGI [66] was 30.7 µM. It also gave a TGI [67] of 15.2 µM, a TGI [68] of 34.6 µM and a TGI [69] of 25.4 µM.

`COc1cc2[nH]c3c(c2cc1OC)CCN[C@@]31CC[C@@]2(CC3c4c(cc(OC)c(O)c42)CCN3C)C[C@@H]1OC` (some centres undefined) showed a TGI [1] of 84.5 µM, a TGI [2] of over 100 µM and a TGI [3] of over 100 µM. For the same compound, the TGI [4] was over 100 µM, the TGI [5] was over 91.2 µM and the TGI [6] was 33.8 µM. It also gave a TGI [7] of 35.9 µM, a TGI [70] of 32.4 µM and a TGI [8] of 37.2 µM. The TGI [9] was 30.7 µM, the TGI [10] was 40.6 µM and the TGI [11] was 41.4 µM. The TGI [12] was 77.9 µM, the TGI [13] was 32.9 µM and the TGI [14] was over 100 µM. The TGI [15] was over 100 µM, the TGI [71] was 25.2 µM and the TGI [16] was over 100 µM. For the same compound, the TGI [17] was 56.5 µM, the TGI [18] was over 81.7 µM and the TGI [20] was 51.8 µM. For the same compound, the TGI [21] was 57.8 µM, the TGI [22] was over 87.4 µM and the TGI [23] was over 100 µM. For the same compound, the TGI [24] was 69.3 µM, the TGI [25] was 66.7 µM and the TGI [26] was 45.3 µM. For the same compound, the TGI [27] was over 79.5 µM, the TGI [28] was over 100 µM and the TGI [29] was over 100 µM. For the same compound, the TGI [30] was 40 µM, the TGI [31] was over 56.2 µM and the TGI [32] was 30.3 µM. It also gave a TGI [33] of 47.3 µM, a TGI [34] of over 91.4 µM and a TGI [35] of over 100 µM. It also gave a TGI [36] of over 100 µM, a TGI [37] of 28.4 µM and a TGI [38] of over 100 µM. The TGI [39] was over 100 µM, the TGI [40] was over 94.8 µM and the TGI [41] was 36.6 µM. It also gave a TGI [42] of over 92.2 µM, a TGI [43] of over 100 µM and a TGI [44] of 34.1 µM. It also gave a TGI [45] of over 100 µM, a TGI [46] of over 52.5 µM and a TGI [47] of over 100 µM. The TGI [48] was 94.5 µM, the TGI [49] was 41.4 µM and the TGI [50] was 54 µM. The TGI [52] was over 71.3 µM, the TGI [53] was over 100 µM and the TGI [54] was over 85.1 µM. It also gave a TGI [55] of over 83.4 µM, a TGI [56] of over 100 µM and a TGI [72] of over 100 µM. For the same compound, the TGI [57] was 38.4 µM, the TGI [58] was over 100 µM and the TGI [59] was over 100 µM. It also gave a TGI [60] of over 100 µM, a TGI [62] of 86.3 µM and a TGI [63] of over 46.4 µM. It also gave a TGI [64] of over 96.9 µM, a TGI [65] of over 100 µM and a TGI [66] of 33.5 µM. The TGI [67] was over 56.2 µM, the TGI [68] was over 85 µM and the TGI [69] was over 100 µM.

For `Cc1ccc(/C=C2\CCCCC2=O)cc1`, the TGI [1] was over 100 µM, the TGI [2] was over 100 µM and the TGI [4] was over 100 µM. For the same compound, the TGI [5] was over 100 µM, the TGI [70] was over 100 µM and the TGI [8] was over 100 µM. For the same compound, the TGI [9] was 48.3 µM, the TGI [11] was over 100 µM and the TGI [71] was over 100 µM. The TGI [16] was over 100 µM, the TGI [17] was 77.4 µM and the TGI [18] was over 100 µM. For the same compound, the TGI [21] was over 100 µM, the TGI [22] was over 100 µM and the TGI [23] was over 100 µM. It also gave a TGI [26] of over 100 µM, a TGI [27] of over 100 µM and a TGI [28] of over 100 µM. It also gave a TGI [30] of over 100 µM, a TGI [31] of 45.4 µM and a TGI [32] of over 100 µM. For the same compound, the TGI [33] was over 100 µM, the TGI [34] was over 100 µM and the TGI [35] was over 100 µM. The TGI [36] was over 100 µM, the TGI [37] was over 100 µM and the TGI [38] was over 100 µM. It also gave a TGI [40] of over 100 µM, a TGI [42] of over 100 µM and a TGI [43] of over 100 µM. For the same compound, the TGI [44] was over 100 µM, the TGI [47] was over 100 µM and the TGI [48] was 88.8 µM. For the same compound, the TGI [50] was over 100 µM, the TGI [53] was over 100 µM and the TGI [56] was over 100 µM. It also gave a TGI [72] of over 100 µM, a TGI [57] of over 100 µM and a TGI [58] of over 100 µM. For the same compound, the TGI [59] was over 100 µM, the TGI [62] was over 100 µM and the TGI [63] was over 100 µM. The TGI [64] was over 100 µM, the TGI [65] was over 100 µM and the TGI [66] was over 100 µM. The TGI [69] was over 100 µM.
